From article PMC11801377, “A uniquely efficacious type of CFTR corrector with complementary mode of action” (Science Advances, 2024)

Molecular target: F508del-CFTR (Homo sapiens, UniProt P13569, DEL508-508)
Assay: Halide-sensitive YFP quenching assay in U2OS-F508del-CFTR-YFP cells
Type: cell-based
Parameters: host or cells: U2OS (PathHunter U2OS-F508del-CFTR MEM-EA)
Conditions: overnight treatment; acute forskolin and IVA 2 nM
Method: U2OS-F508del-CFTR cells expressing Topaz-YFP F46L/H148Q/I152L were seeded at 20,000 cells per well into 384-well black clear-bottom plates in 40 μl per well growth medium (Mc COY’s 5A, Gibco, 10% FBS, penicillin/streptomycin), containing the various CFTR correctors at the indicated concentrations. The cells were coincubated with the compounds for 24 hours (37°C, 5% CO2). The next day, plates were washed twice with PBS^+ (55 μl per well; PBS containing 0.9 mM Ca^2+ and 0.5 mM Mg^2+). PBS^+ was fully removed, and cells were supplemented with 15 μl PBS^+. Then, 5 μl of 4× concentrated stocks of IVA or vehicle in dilution buffer [PBS^+, 0.1 μM forskolin, and 0.2% bovine serum albumin (fatty acid free) (pH 7.4)] were added and incubated for 30 min in the dark. For experiments with I-172 (Sigma- Aldrich), the inhibitor was added to the mix with either IVA or vehicle to reach a final concentration in cells of 20 μM. Then, plates were transferred to the FLIPR Tetra (fluorescence imaging plate reader; Molecular Devices: excitation: 470 to 495 nm; emission: 526 to 585 nm), baseline fluorescence reading of the YFP signal was performed for 6 s (10 × 0.6 s intervals) after which 25 μl of iodide buffer [137 mM NaI, 2.7 mM KCl, 1.5 mM KH2PO4, 8.1 mM Na2HPO4, 1 mM CaCl2, and 0.5 mM MgCl2 (pH 7.4)] was added, and fluorescence reading was continued for 70 s (50 × 0.6 s intervals; 20 x 2 s intervals) to assess YFP quenching through CFTR-mediated iodide influx. For analysis, fluorescence traces were aligned and normalized at the last time point before iodide addition (normalized fluorescence = 1). Normalized fluorescence values obtained 20 s after the beginning of the assay were used to assess the degree of YFP quenching, i.e., CFTR function (see fig. S1J). […] Then, plates were read and analyzed as above. […] Then, plates were transferred to the FLIPR Tetra and read and analyzed as above.

Sequence of F508del-CFTR (P13569 with tags, fused parts or gaps DEL508-508): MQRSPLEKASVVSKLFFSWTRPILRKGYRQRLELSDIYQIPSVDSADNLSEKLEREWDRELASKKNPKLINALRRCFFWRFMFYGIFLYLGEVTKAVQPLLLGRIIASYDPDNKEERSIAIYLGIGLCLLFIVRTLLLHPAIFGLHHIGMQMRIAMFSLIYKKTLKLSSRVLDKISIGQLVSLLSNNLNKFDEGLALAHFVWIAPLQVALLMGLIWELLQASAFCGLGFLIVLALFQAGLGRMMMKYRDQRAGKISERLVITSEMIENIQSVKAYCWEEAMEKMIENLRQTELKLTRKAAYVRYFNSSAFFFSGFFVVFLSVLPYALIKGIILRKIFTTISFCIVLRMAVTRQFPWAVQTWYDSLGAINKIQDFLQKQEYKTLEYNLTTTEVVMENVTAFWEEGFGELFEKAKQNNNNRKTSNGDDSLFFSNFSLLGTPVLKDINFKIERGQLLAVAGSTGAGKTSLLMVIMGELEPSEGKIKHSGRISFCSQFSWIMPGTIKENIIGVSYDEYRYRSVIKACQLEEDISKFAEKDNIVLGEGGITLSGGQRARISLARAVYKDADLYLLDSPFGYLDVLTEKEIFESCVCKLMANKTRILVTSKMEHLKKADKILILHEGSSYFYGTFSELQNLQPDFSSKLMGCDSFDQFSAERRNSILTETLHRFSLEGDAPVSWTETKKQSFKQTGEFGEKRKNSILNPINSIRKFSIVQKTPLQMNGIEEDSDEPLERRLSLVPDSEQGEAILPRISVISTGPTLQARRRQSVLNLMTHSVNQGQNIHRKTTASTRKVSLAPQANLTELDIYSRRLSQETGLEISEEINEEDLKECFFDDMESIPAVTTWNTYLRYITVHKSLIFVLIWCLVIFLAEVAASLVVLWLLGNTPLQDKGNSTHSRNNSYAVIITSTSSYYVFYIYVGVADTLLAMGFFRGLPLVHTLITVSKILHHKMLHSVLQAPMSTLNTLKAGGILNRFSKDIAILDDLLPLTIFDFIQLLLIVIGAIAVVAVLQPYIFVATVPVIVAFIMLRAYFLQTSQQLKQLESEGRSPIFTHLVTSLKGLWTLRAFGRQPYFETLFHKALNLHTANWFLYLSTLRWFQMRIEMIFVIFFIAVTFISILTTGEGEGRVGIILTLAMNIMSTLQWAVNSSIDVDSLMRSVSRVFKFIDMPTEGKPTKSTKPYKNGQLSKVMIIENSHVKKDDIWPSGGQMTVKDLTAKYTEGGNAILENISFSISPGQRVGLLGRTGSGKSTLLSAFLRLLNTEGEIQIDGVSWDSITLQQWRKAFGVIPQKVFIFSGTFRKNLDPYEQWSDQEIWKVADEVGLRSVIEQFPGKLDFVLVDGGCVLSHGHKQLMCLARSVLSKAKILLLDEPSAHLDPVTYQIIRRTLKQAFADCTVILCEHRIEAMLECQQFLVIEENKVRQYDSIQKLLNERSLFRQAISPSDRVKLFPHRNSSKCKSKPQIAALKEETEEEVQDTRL

COc1cc(CCNC(=O)C2CC(=O)N(C)C(CC(C)C)C(=O)N3CCCCC3C(=O)NC(Cc3ccccc3)COc3ccc4ncc(F)cc4c3C(=O)N2)on1 (stereo not shown) [IDOR-3]
F508del-CFTR function (YFP quenching): strongly increased F508del-CFTR function
